According to the supplement of paper PMC13380429:

What was measured:
A549-ACE2 [1] = experiment: phospholipidosis EC50; higher = less potent phospholipidosis inducer
Calu-3 [2] = experiment: relative viability EC50 (midpoint between 100% and the lowest measured viability); higher = less toxic; details: 72 h
Vero E6 [3] = experiment: as above; details: 72 h
[4] = tested on: A549-ACE2 infected with SARS-CoV-2; experiment: SARS-CoV-2 infection rate relative to DMSO; higher = more infection; details: 24 h
A549-ACE2 [5] = experiment: drug-induced phospholipidosis relative to tamoxifen; higher = more phospholipidosis
[6] = tested on: A549-ACE2 infected with SARS-CoV-2; experiment: morphology score (similarity to uninfected cells); higher = more like uninfected cells; details: 24 h
HepG2 [7] = experiment: cell viability relative to DMSO; higher = less toxic; details: 72 h
U2OS [8] = experiment: as above; details: 72 h
Calu-3 [9] = experiment: as above; details: 72 h
Vero E6 [10] = experiment: as above; details: 72 h
Caco-2 [11] = experiment: as above; details: 72 h
[12] = tested on: A549-ACE2 infected with SARS-CoV-2; experiment: cell count relative to DMSO; higher = less toxic; details: 24 h
HepG2 [13] = experiment: drug sensitivity score (DSS) for viability; higher = more toxic; extreme values may be limits of the assay; details: 72 h
U2OS [14] = experiment: as above; details: 72 h
Calu-3 [15] = experiment: as above; details: 72 h
Vero E6 [16] = experiment: as above; details: 72 h
Caco-2 [17] = experiment: as above; details: 72 h
HepG2 [18] = experiment: relative viability EC50 (midpoint between 100% and the lowest measured viability); higher = less toxic; details: 72 h
U2OS [19] = experiment: as above; details: 72 h
Caco-2 [20] = experiment: as above; details: 72 h

O=C(NCCN1CCC2(CC1)C(=O)NCN2c1cccc(F)c1)c1ccc2ccccc2c1
Details	SARS-CoV-2 infection rate [%]	cell count [%]	cell viability [%]	morphology score	phospholipidosis EC50 [µM]
A549-ACE2 [1], 24 h	–	–	–	–	2.21
A549-ACE2 [1], 48 h	–	–	–	–	3.21
A549-ACE2 [1], 72 h	–	–	–	–	4.55
Caco-2 [11], 1 nM	–	–	102	–	–
Caco-2 [11], 10 nM	–	–	93.5	–	–
Caco-2 [11], 100 nM	–	–	95.2	–	–
Caco-2 [11], 1000 nM	–	–	90.8	–	–
Caco-2 [11], 10000 nM	–	–	52.4	–	–
Calu-3 [9], 1 nM	–	–	100	–	–
Calu-3 [9], 10 nM	–	–	102	–	–
Calu-3 [9], 100 nM	–	–	94.8	–	–
Calu-3 [9], 1000 nM	–	–	95	–	–
Calu-3 [9], 10000 nM	–	–	11.2	–	–
HepG2 [7], 1 nM	–	–	104	–	–
HepG2 [7], 10 nM	–	–	106	–	–
HepG2 [7], 100 nM	–	–	102	–	–
HepG2 [7], 1000 nM	–	–	85.9	–	–
HepG2 [7], 10000 nM	–	–	54.5	–	–
U2OS [8], 1 nM	–	–	101	–	–
U2OS [8], 10 nM	–	–	104	–	–
U2OS [8], 100 nM	–	–	97.7	–	–
U2OS [8], 1000 nM	–	–	100	–	–
U2OS [8], 10000 nM	–	–	71	–	–
Vero E6 [10], 1 nM	–	–	103	–	–
Vero E6 [10], 10 nM	–	–	95.6	–	–
Vero E6 [10], 100 nM	–	–	97.4	–	–
Vero E6 [10], 1000 nM	–	–	96.4	–	–
Vero E6 [10], 10000 nM	–	–	84.8	–	–
[4], 0.3 µM	107	–	–	–	–
[4], 3 µM	35	–	–	–	–
[4], 10 µM	20	–	–	–	–
[4], 30 µM	48	–	–	–	–
[6], 0.3 µM	–	–	–	-0.21	–
[6], 3 µM	–	–	–	0.7	–
[6], 10 µM	–	–	–	0.39	–
[6], 30 µM	–	–	–	0.06	–
[12], 0.3 µM	–	96	–	–	–
[12], 3 µM	–	115	–	–	–
[12], 10 µM	–	93	–	–	–
[12], 30 µM	–	3	–	–	–

Details	drug sensitivity score	relative viability EC50 [µM]
Caco-2 [17]	4	–
Calu-3 [2]	–	2.72
Calu-3 [15]	5.7	–
HepG2 [13]	4.4	–
U2OS [14]	1.2	–
Vero E6 [3]	–	> 10
Vero E6 [16]	0.5	–

drug-induced phospholipidosis [%], A549-ACE2 [5]
Details	0.3 µM	0.833333 µM	3.33333 µM	6.66667 µM	10 µM	30 µM
24 h	1.19	9.12	93.1	112	127	127
48 h	2.88	7.95	76.2	107	140	134
72 h	2.25	6.48	52.3	100	120	–

Clc1ccc2c(c1)N=C(N1CCNCC1)c1ccccc1N2 [desmethylclozapine]
Details	SARS-CoV-2 infection rate [%]	cell count [%]	cell viability [%]	morphology score	phospholipidosis EC50 [µM]
A549-ACE2 [1], 24 h	–	–	–	–	6.54
A549-ACE2 [1], 48 h	–	–	–	–	6.43
A549-ACE2 [1], 72 h	–	–	–	–	8.34
Caco-2 [11], 1 nM	–	–	88	–	–
Caco-2 [11], 10 nM	–	–	94.2	–	–
Caco-2 [11], 100 nM	–	–	92.9	–	–
Caco-2 [11], 1000 nM	–	–	98.5	–	–
Caco-2 [11], 10000 nM	–	–	99.1	–	–
Calu-3 [9], 1 nM	–	–	104	–	–
Calu-3 [9], 10 nM	–	–	114	–	–
Calu-3 [9], 100 nM	–	–	104	–	–
Calu-3 [9], 1000 nM	–	–	116	–	–
Calu-3 [9], 10000 nM	–	–	91.8	–	–
HepG2 [7], 1 nM	–	–	97.3	–	–
HepG2 [7], 10 nM	–	–	105	–	–
HepG2 [7], 100 nM	–	–	96.8	–	–
HepG2 [7], 1000 nM	–	–	104	–	–
HepG2 [7], 10000 nM	–	–	87.7	–	–
U2OS [8], 1 nM	–	–	106	–	–
U2OS [8], 10 nM	–	–	103	–	–
U2OS [8], 100 nM	–	–	100	–	–
U2OS [8], 1000 nM	–	–	102	–	–
U2OS [8], 10000 nM	–	–	97.6	–	–
Vero E6 [10], 1 nM	–	–	103	–	–
Vero E6 [10], 10 nM	–	–	107	–	–
Vero E6 [10], 100 nM	–	–	94.2	–	–
Vero E6 [10], 1000 nM	–	–	102	–	–
Vero E6 [10], 10000 nM	–	–	93	–	–
[4], 0.3 µM	96	–	–	–	–
[4], 3 µM	62	–	–	–	–
[4], 10 µM	28	–	–	–	–
[4], 30 µM	13	–	–	–	–
[6], 0.3 µM	–	–	–	0.09	–
[6], 3 µM	–	–	–	0.63	–
[6], 10 µM	–	–	–	0.76	–
[6], 30 µM	–	–	–	0.73	–
[12], 0.3 µM	–	100	–	–	–
[12], 3 µM	–	112	–	–	–
[12], 10 µM	–	115	–	–	–
[12], 30 µM	–	121	–	–	–

Details	drug sensitivity score	relative viability EC50 [µM]
Caco-2 [17]	0	–
Caco-2 [20]	–	> 10
Calu-3 [2]	–	> 10
Calu-3 [15]	0	–
HepG2 [13]	0	–
HepG2 [18]	–	> 10
U2OS [14]	0	–
U2OS [19]	–	> 10
Vero E6 [3]	–	> 10
Vero E6 [16]	0	–

drug-induced phospholipidosis [%], A549-ACE2 [5]
Details	0.3 µM	0.833333 µM	3.33333 µM	6.66667 µM	10 µM	30 µM
24 h	3.47	2.91	27	53.9	65.2	91.3
48 h	4.09	3.86	21.2	55.4	70.7	95.8
72 h	4.5	2.24	18.3	49.2	76.1	116

Oc1ccc2c(c1)CC[C@H](c1ccccc1)[C@@H]2c1ccc(OCCN2CCCC2)cc1 [lasofoxifene]
Details	SARS-CoV-2 infection rate [%]	cell count [%]	cell viability [%]	morphology score	phospholipidosis EC50 [µM]
A549-ACE2 [1], 24 h	–	–	–	–	2.32
A549-ACE2 [1], 48 h	–	–	–	–	2.82
A549-ACE2 [1], 72 h	–	–	–	–	3
Caco-2 [11], 1 nM	–	–	101	–	–
Caco-2 [11], 10 nM	–	–	106	–	–
Caco-2 [11], 100 nM	–	–	97.5	–	–
Caco-2 [11], 1000 nM	–	–	100	–	–
Caco-2 [11], 10000 nM	–	–	60.1	–	–
Calu-3 [9], 1 nM	–	–	88.7	–	–
Calu-3 [9], 10 nM	–	–	96.6	–	–
Calu-3 [9], 100 nM	–	–	97.6	–	–
Calu-3 [9], 1000 nM	–	–	95.9	–	–
Calu-3 [9], 10000 nM	–	–	3.8	–	–
HepG2 [7], 1 nM	–	–	93.4	–	–
HepG2 [7], 10 nM	–	–	97.3	–	–
HepG2 [7], 100 nM	–	–	106	–	–
HepG2 [7], 1000 nM	–	–	93.8	–	–
HepG2 [7], 10000 nM	–	–	27.6	–	–
U2OS [8], 1 nM	–	–	105	–	–
U2OS [8], 10 nM	–	–	99.3	–	–
U2OS [8], 100 nM	–	–	102	–	–
U2OS [8], 1000 nM	–	–	95	–	–
U2OS [8], 10000 nM	–	–	69.3	–	–
Vero E6 [10], 1 nM	–	–	99.5	–	–
Vero E6 [10], 10 nM	–	–	103	–	–
Vero E6 [10], 100 nM	–	–	103	–	–
Vero E6 [10], 1000 nM	–	–	102	–	–
Vero E6 [10], 10000 nM	–	–	61.2	–	–
[4], 0.1 µM	98	–	–	–	–
[4], 0.3 µM	95	–	–	–	–
[4], 1 µM	78	–	–	–	–
[4], 3 µM	40	–	–	–	–
[6], 0.1 µM	–	–	–	0.1	–
[6], 0.3 µM	–	–	–	0.07	–
[6], 1 µM	–	–	–	0.48	–
[6], 3 µM	–	–	–	0.72	–
[12], 0.1 µM	–	105	–	–	–
[12], 0.3 µM	–	102	–	–	–
[12], 1 µM	–	106	–	–	–
[12], 3 µM	–	120	–	–	–

Details	drug sensitivity score	relative viability EC50 [µM]
Caco-2 [17]	2	–
Calu-3 [2]	–	2.84
Calu-3 [15]	5.9	–
HepG2 [13]	5	–
HepG2 [18]	–	2.46
U2OS [14]	2.2	–
Vero E6 [16]	1.8	–

drug-induced phospholipidosis [%], A549-ACE2 [5]
Details	0.3 µM	0.833333 µM	3.33333 µM	6.66667 µM	10 µM
24 h	8.45	22	81.6	102	112
48 h	7.62	12.5	79.3	91.7	119
72 h	6.02	12	69	83.8	120

NCCC(Oc1ccc(C(F)(F)F)cc1)c1ccccc1 (centres undefined) [norfluoxetine]
Details	SARS-CoV-2 infection rate [%]	cell count [%]	cell viability [%]	morphology score	phospholipidosis EC50 [µM]
A549-ACE2 [1], 24 h	–	–	–	–	6.78
A549-ACE2 [1], 48 h	–	–	–	–	5.96
A549-ACE2 [1], 72 h	–	–	–	–	10.7
Caco-2 [11], 1 nM	–	–	90	–	–
Caco-2 [11], 10 nM	–	–	104	–	–
Caco-2 [11], 100 nM	–	–	104	–	–
Caco-2 [11], 1000 nM	–	–	103	–	–
Caco-2 [11], 10000 nM	–	–	63.3	–	–
Calu-3 [9], 1 nM	–	–	96.4	–	–
Calu-3 [9], 10 nM	–	–	108	–	–
Calu-3 [9], 100 nM	–	–	100	–	–
Calu-3 [9], 1000 nM	–	–	93.6	–	–
Calu-3 [9], 10000 nM	–	–	54.3	–	–
HepG2 [7], 1 nM	–	–	93.6	–	–
HepG2 [7], 10 nM	–	–	92.5	–	–
HepG2 [7], 100 nM	–	–	107	–	–
HepG2 [7], 1000 nM	–	–	73.7	–	–
HepG2 [7], 10000 nM	–	–	64.7	–	–
U2OS [8], 1 nM	–	–	96.9	–	–
U2OS [8], 10 nM	–	–	102	–	–
U2OS [8], 100 nM	–	–	108	–	–
U2OS [8], 1000 nM	–	–	102	–	–
U2OS [8], 10000 nM	–	–	90.9	–	–
Vero E6 [10], 1 nM	–	–	106	–	–
Vero E6 [10], 10 nM	–	–	94.5	–	–
Vero E6 [10], 100 nM	–	–	99.8	–	–
Vero E6 [10], 1000 nM	–	–	95.7	–	–
Vero E6 [10], 10000 nM	–	–	84.4	–	–
[4], 0.3 µM	99	–	–	–	–
[4], 3 µM	84	–	–	–	–
[4], 10 µM	17	–	–	–	–
[4], 30 µM	46	–	–	–	–
[6], 0.3 µM	–	–	–	0.13	–
[6], 3 µM	–	–	–	0.26	–
[6], 10 µM	–	–	–	0.86	–
[6], 30 µM	–	–	–	0	–
[12], 0.3 µM	–	99	–	–	–
[12], 3 µM	–	103	–	–	–
[12], 10 µM	–	128	–	–	–
[12], 30 µM	–	73	–	–	–

Details	drug sensitivity score	relative viability EC50 [µM]
Caco-2 [17]	1.5	–
Calu-3 [15]	3.4	–
HepG2 [13]	4.7	–
U2OS [14]	0	–
U2OS [19]	–	> 10
Vero E6 [3]	–	> 10
Vero E6 [16]	0.7	–

drug-induced phospholipidosis [%], A549-ACE2 [5]
Details	0.3 µM	0.833333 µM	3.33333 µM	6.66667 µM	10 µM	30 µM
24 h	-1.03	-3.68	19.4	73	85.6	130
48 h	1.11	-2.85	18.7	79.1	101	132
72 h	2.19	-3.51	8.94	50.5	78.9	153
